One assay deals with T1, ABL1 (Homo sapiens, UniProt P00519).
T1 construct: purchased Carna Biosciences
As to the kind of experiment: Luminescence-based ABL kinase assay (ADP-Glo, 300 μM ATP). It counts as biochemical. The method in brief: (§1)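 ABL1 (3.325 nM in the enzyme solution) was preincubated with compound for 30 min at RT in HEPES pH 7.5 buffer with MgCl2, EGTA, DTT, BSA and Brij-35. Adding Peptide 2 and ATP (6 μM and 1.2 mM in the start solution) began a 90 min RT reaction. ADP-Glo luminescence gave % activity and IC50.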
(In general: In ADP-Glo the light output rises with the ADP produced.)

In another assay the test system is K562 cells. Description: K562 cell proliferation assay (CellTiter-Glo). It counts as cell-based. As to conditions: Homo sapiens, K562, 72 h, CellTiter-Glo viability, read-out: Cell Line (IC50, nM) K562. On the procedure: (§2) K562 and HL60 cells, cultured in Iscove's Modified Dulbecco's Media (IMDM) supplemented with 10% FBS, were harvested at 50-80% confluency and plated at 2,000 cells per well (K562) or 1,500 cells per well (HL60) in 384-well tissue culture plates. A subset of wells contained media only (low control, LC). Compounds were serially diluted in DMSO. 40 nL of compound or DMSO only (high control, HC) were added to each well using an Echo 550 liquid handler (Labcyte). The plates were placed in a 37° C. incubator with 5% CO2 for 72 hours. Cell viability was measured using a CellTiter-Glo luminescent cell viability assay (Promega), which allows for relative quantification of metabolically active cells by luminescence-based measurements of intracellular ATP concentrations. Briefly, plates were removed from the incubator and equilibrated for 15 minutes at room temperature prior to the addition of 40 μL of CellTiter-Glo reagent. Plates were then incubated for 30 minutes at room temperature. Luminescence was measured using an EnSpire plate reader (Perkin Elmer). As noted above, luminescence values from wells with DMSO only or media without cells were used as high and low controls (HC and LC), respectively. Normalized percent viability was calculated as follows: percent viability=100×(Lumsample−LumLC)/(LumHC−LumLC).
For orientation: Cellular ATP, detected with luciferase, serves as a proxy for viable cell number.

The target in a further assay is ABL1 (T315I) (Homo sapiens, UniProt P00519, T315I). Description: Luminescence-based ABL kinase assay (ADP-Glo, 300 μM ATP), T315I mutant. It counts as biochemical. The method in brief: as §1
Another assay concerns HL60 cells. As to the kind of experiment: HL60 cell proliferation assay (CellTiter-Glo). As to conditions: Homo sapiens, HL-60, 72 h, CellTiter-Glo viability, read-out: Cell Line (IC50, nM) HL60. It counts as cell-based. As for the experimental part:
as §2

With `COc1ncc(F)c(OC)c1-c1c[nH]c2nc(NC(=O)[C@H]3C[C@H]3F)ccc12` [Compound 125, (1R,2R)-2-fluoro-N-[3-(5-fluoro-2,4-dimethoxypyridin-3-yl)-1H-pyrrolo[2,3-b]pyridin-6-yl]cyclopropane-1-carboxamide], the IC50 (usually the concentration that gives 50% inhibition) against ABL1 was 22.2 nM; in the assay on K562 cells it was 104 nM; against ABL1 (T315I) it was 39.5 nM; in the assay on HL60 cells, above 10000 nM.
The like results for `COc1ccccc1-c1c[nH]c2nc(NC(=O)[C@H]3C[C@H]3F)ccc12` [Compound 2, (1R,2R)-2-fluoro-N-(3-(2-methoxyphenyl)-1H-pyrrolo[2,3-b]pyridin-6-yl)cyclopropane-1-carboxamide] were, in that order, 22.2 nM, 176 nM, 9.96 nM and above 10000 nM.
The like results for `COc1ncccc1-c1c[nH]c2nc(NC(=O)C3CC3)ccc12` [Compound 14, N-[3-(2-methoxypyridin-3-yl)-1H-pyrrolo[2,3-b]pyridin-6-yl]cyclopropanecarboxamide] were, in that order, 91.2 nM, 416 nM, 52.8 nM and above 10000 nM.
The like results for `COc1ncc(F)cc1-c1c[nH]c2nc(NC(=O)[C@@H]3C[C@@H]3F)ccc12` [Compound 92, (1S,2S)-2-fluoro-N-[3-(5-fluoro-2-methoxypyridin-3-yl)-1H-pyrrolo[2,3-b]pyridin-6-yl]cyclopropane-1-carboxamide] were, in that order, 39.4 nM, 248 nM, 27.3 nM and above 10000 nM.
For the compound `COc1ccccc1-c1c[nH]c2nc(NC(=O)NCCN3CCNCC3)ccc12` [Compound 121, 3-[3-(2-methoxyphenyl)-1H-pyrrolo[2,3-b]pyridin-6-yl]-1-[2-(piperazin-1-yl)ethyl]urea], the IC50 at ABL1 was 31.8 nM; in the assay on K562 cells, 365 nM; at ABL1 (T315I), 5.98 nM; in the assay on HL60 cells, above 10000 nM.
In the same order, the values of `COc1cc(F)ccc1-c1n[nH]c2nc(NC(=O)[C@@H]3C[C@@H]3F)ccc12` [Compound 99, (1S,2S)-2-fluoro-N-[3-(4-fluoro-2-methoxyphenyl)-1H-pyrazolo[3,4-b]pyridin-6-yl]cyclopropane-1-carboxamide] are 14.9 nM, 129 nM, 25.7 nM and above 10000 nM.
The like results for `COc1cc2nccn2cc1-c1c[nH]c2nc(NC(=O)[C@@H]3C[C@@H]3F)ccc12` [Compound 72, (1S,2S)-2-fluoro-N-(3-(7-methoxyimidazo[1,2-a]pyridin-6-yl)-1H-pyrrolo[2,3-b]pyridin-6-yl)cyclopropane-1-carboxamide] were, in that order, 70.2 nM, 1020 nM, 162 nM and above 10000 nM.
In the same order, the values of `COc1c(-c2c[nH]c3nc(NC(=O)[C@@H]4C[C@@H]4F)ccc23)ccc2cn[nH]c12` [Compound 81, (1S,2S)-2-fluoro-N-(3-(7-methoxy-1H-indazol-6-yl)-1H-pyrrolo[2,3-b]pyridin-6-yl)cyclopropane-1-carboxamide] are 12.2 nM, 96.2 nM, 12.9 nM and above 10000 nM.
For `CCN1CCN(CCNC(=O)Nc2ccc3c(-c4ccccc4OC)c[nH]c3n2)CC1` [Compound 109, 1-[2-(4-ethylpiperazin-1-yl)ethyl]-3-[3-(2-methoxyphenyl)-1H-pyrrolo[2,3-b]pyridin-6-yl]urea], the IC50 is 39 nM against ABL1, 278 nM in the assay on K562 cells, 7.08 nM against ABL1 (T315I) and above 10000 nM with HL60 cells.
The like results for `COc1ccc(F)cc1-c1n[nH]c2nc(NC(=O)NCCN3CCN(C)CC3)ccc12` [Compound 79, 3-[3-(5-fluoro-2-methoxyphenyl)-1H-pyrazolo[3,4-b]pyridin-6-yl]-1-[2-(4-methylpiperazin-1-yl)ethyl]urea] were, in that order, 143 nM, 719 nM, 108 nM and above 10000 nM.
In the same order, the values of `O=C(Nc1ccc2c(-c3ccc4[nH]cnc4c3)c[nH]c2n1)[C@@H]1C[C@@H]1F` [Compound 28, (1S,2S)—N-[3-(1H-1,3-benzodiazol-5-yl)-1H-pyrrolo[2,3-b]pyridin-6-yl]-2-fluorocyclopropane-1-carboxamide] are 7.58 nM, 62.1 nM, 2.84 nM and 385 nM.
For `COc1ccccc1-c1c[nH]c2nc(NC(=O)[C@H]3C[C@@H]3CO)ccc12` (relative stereo) [Compound 108, trans-2-(hydroxymethyl)-N-(3-(2-methoxyphenyl)-1H-pyrrolo[2,3-b]pyridin-6-yl)cyclopropane-1-carboxamide], the IC50 at ABL1 is 78.6 nM; with K562 cells, 419 nM; against ABL1 (T315I), 17.8 nM; in the assay with HL60 cells it was above 10000 nM.
With `COc1cc2sncc2cc1-c1c[nH]c2nc(NC(=O)[C@@H]3C[C@@H]3F)ccc12` [Compound 84, (1S,2S)-2-fluoro-N-[3-(6-methoxy-1,2-benzothiazol-5-yl)-1H-pyrrolo[2,3-b]pyridin-6-yl]cyclopropane-1-carboxamide], the IC50 against ABL1 was 37 nM; in the assay on K562 cells, 150 nM; against ABL1 (T315I) it was 14.9 nM; in the assay on HL60 cells it was above 10000 nM.
In the same order, the values of `COc1ccccc1-c1c[nH]c2nc(NC(=O)[C@@H]3C[C@@H]3CCO)ccc12` (relative stereo) [Compound 105, cis-2-(2-hydroxyethyl)-N-(3-(2-methoxyphenyl)-1H-pyrrolo[2,3-b]pyridin-6-yl)cyclopropanecarboxamide] are 109 nM, 489 nM, 19.9 nM and above 10000 nM.
The like results for `O=C(Nc1ccc2c(-c3ccc4[nH]cnc4c3)c[nH]c2n1)C1CC1` [Compound 19, N-[3-(1H-1,3-benzodiazol-5-yl)-1H-pyrrolo[2,3-b]pyridin-6-yl]cyclopropanecarboxamide] were, in that order, 11.2 nM, 147 nM, 4.57 nM and 287 nM.
The like results for `COc1cc2ocnc2cc1-c1c[nH]c2nc(NC(=O)[C@@H]3C[C@@H]3F)ccc12` [Compound 88, (1S,2S)-2-fluoro-N-(3-(6-methoxybenzo[d]oxazol-5-yl)-1H-pyrrolo[2,3-b]pyridin-6-yl)cyclopropane-1-carboxamide] were, in that order, 18.6 nM, 84.1 nM, 30.9 nM and above 10000 nM.
`CCOc1cccc(F)c1-c1n[nH]c2nc(NC(=O)[C@@H]3C[C@@H]3F)ccc12` [Compound 67, (1S,2S)—N-(3-(2-ethoxy-6-fluorophenyl)-1H-pyrazolo[3,4-b]pyridin-6-yl)-2-fluorocyclopropane-1-carboxamide]: the IC50 on ABL1 is 157 nM; in the assay with K562 cells, 1140 nM; against ABL1 (T315I), 37.7 nM; in the assay on HL60 cells, above 10000 nM.
In the same order, the values of `Cc1nc2cc(-c3c[nH]c4nc(NC(=O)C5CC5)ccc34)ccc2[nH]1` [Compound 29, N-(3-(2-methyl-1H-benzo[d]imidazol-5-yl)-1H-pyrrolo[2,3-b]pyridin-6-yl)cyclopropanecarboxamide] are 41.8 nM, 454 nM, 10.5 nM and 470 nM.
As for `COc1ccnc(OC)c1-c1c[nH]c2nc(NC(=O)NCCN3CCNCC3)ccc12` [Compound 137, 3-[3-(2,4-dimethoxypyridin-3-yl)-1H-pyrrolo[2,3-b]pyridin-6-yl]-1-[2-(piperazin-1-yl)ethyl]urea], the IC50 was 36 nM against ABL1, 733 nM with K562 cells, 40.6 nM against ABL1 (T315I) and above 10000 nM in the assay on HL60 cells.
`COc1ncnc(OC2CC2)c1-c1c[nH]c2nc(NC(=O)[C@@H]3C[C@@H]3F)ccc12` [Compound 153, (1S,2S)—N-[3-(4-cyclopropoxy-6-methoxypyrimidin-5-yl)-1H-pyrrolo[2,3-b]pyridin-6-yl]-2-fluorocyclopropane-1-carboxamide]: the IC50 was 4.65 nM on ABL1, 8.67 nM in the assay on K562 cells, 1.37 nM against ABL1 (T315I) and above 10000 nM in the assay on HL60 cells.
The like results for `O=C(Nc1ccc2c(-c3c(F)cccc3OC3CC3)c[nH]c2n1)[C@@H]1C[C@@H]1F` [Compound 127, (1S,2S)—N-[3-(2-cyclopropoxy-6-fluorophenyl)-1H-pyrrolo[2,3-b]pyridin-6-yl]-2-fluorocyclopropane-1-carboxamide] were, in that order, 22.1 nM, 100 nM, 0.745 nM and above 10000 nM.

The record behind these values is patent publication US20240043420A1, “7-AZAINDOLE COMPOUNDS FOR INHIBITION OF BCR-ABL TYROSINE KINASES” (EnLiven Therapeutics, Inc., priority 2020, published 2024).
